Test results: patent US11325889B2, “Substituted 3-((3-aminophenyl)amino)piperidine-2,6-dione compounds, compositions thereof, and methods of treatment therewith” (Celgene Corporation, priority 2018, dated 2022)

Biological target: T1, AR protein in VCaP cells (Homo sapiens, UniProt P10275)
T1 construct: endogenous in cells; host or cells: VCaP cells
T1 sequence (P10275 1-920): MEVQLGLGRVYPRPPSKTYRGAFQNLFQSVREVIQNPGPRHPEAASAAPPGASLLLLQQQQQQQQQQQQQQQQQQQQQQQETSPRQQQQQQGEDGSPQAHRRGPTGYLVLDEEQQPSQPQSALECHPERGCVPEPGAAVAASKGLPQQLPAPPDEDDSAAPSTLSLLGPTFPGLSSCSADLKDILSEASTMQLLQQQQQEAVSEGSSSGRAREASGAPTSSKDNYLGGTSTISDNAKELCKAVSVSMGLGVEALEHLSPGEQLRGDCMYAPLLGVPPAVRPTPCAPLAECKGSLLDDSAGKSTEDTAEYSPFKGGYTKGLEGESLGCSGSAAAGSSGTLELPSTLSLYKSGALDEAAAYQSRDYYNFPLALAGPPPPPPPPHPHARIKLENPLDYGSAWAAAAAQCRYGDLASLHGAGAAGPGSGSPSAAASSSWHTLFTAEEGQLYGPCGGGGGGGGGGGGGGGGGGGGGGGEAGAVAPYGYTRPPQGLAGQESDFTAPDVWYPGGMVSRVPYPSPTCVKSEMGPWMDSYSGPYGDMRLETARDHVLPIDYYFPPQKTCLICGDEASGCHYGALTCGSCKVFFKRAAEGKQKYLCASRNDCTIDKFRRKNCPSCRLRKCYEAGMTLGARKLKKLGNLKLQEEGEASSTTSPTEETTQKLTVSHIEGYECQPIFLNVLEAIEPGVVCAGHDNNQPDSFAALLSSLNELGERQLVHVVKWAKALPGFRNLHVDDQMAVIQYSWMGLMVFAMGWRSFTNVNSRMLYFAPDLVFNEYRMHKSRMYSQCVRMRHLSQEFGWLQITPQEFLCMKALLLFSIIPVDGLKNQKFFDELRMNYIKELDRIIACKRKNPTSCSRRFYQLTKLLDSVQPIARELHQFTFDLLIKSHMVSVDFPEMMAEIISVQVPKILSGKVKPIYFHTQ
Assay: VCAP AR Degradation Assay (AR ELISA, 24 h)
Type: cell-based
Settings: for Y (lowest measured AR level normalized to DMSO control): AR degradation efficiency; for DC50: concentration of compound when AR level = 50% of DMSO control, read-out: DC50
How it was run: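 VCaP cells in DMEM with 8% FBS exposed for 24 h at 37° C to a 10-point, 1:3 series (final top concentration […]; 0.1% DMSO control). Lysate AR measured by sandwich ELISA and normalized to DMSO as percent of control. DC50, EC50 and lowest AR level (Y) from four-parameter logistic fit.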

## CCc1cc(N2C(=S)N(c3ccc(C#N)c(C(F)(F)F)c3)C(=O)C2(C)C)ccc1OCC[C@H]1CCN(CC(=O)Nc2cccc(NC3CCC(=O)NC3=O)c2)[C@H](C)C1 (stereo partly drawn) [Cmpd 70, 2-((2R,4S)-4-(2-(4-(3-(4-cyano-3-(trifluoromethyl)phenyl)-5,5-dimethyl-4-oxo-2-thioxoimidazolidin-1-yl)-2-ethylphenoxy)ethyl)-2-methylpiperidin-1-yl)-N-(3-(2,6-dioxopiperidin-3-ylamino)phenyl)acetamide]
  Y (lowest measured AR level normalized to DMSO control): * (0<Y<=25%)
  DC50: < 100 nM

## C[C@@H](C(=O)Nc1cccc(NC2CCC(=O)NC2=O)c1)N1CCC(CCOc2ccc(N3C(=S)N(c4cnc(C#N)c(C(F)(F)F)c4)C(=O)C3(C)C)cc2CCF)CC1 (stereo partly drawn) [Cmpd 73, (2S)-2-(4-(2-(4-(3-(6-cyano-5-(trifluoromethyl)pyridin-3-yl)-5,5-dimethyl-4-oxo-2-thioxoimidazolidin-1-yl)-2-(2-fluoroethyl)phenoxy)ethyl)piperidin-1-yl)-N-(3-(2,6-dioxopiperidin-3-ylamino)phenyl)propanamide]
  Y (lowest measured AR level normalized to DMSO control): * (0<Y<=25%)
  DC50: < 100 nM

## CC(C)c1cc(N2C(=S)N(c3ccc(C#N)c(C(F)(F)F)c3)C(=O)C2(C)C)cnc1OCC[C@H]1C[C@@H](C)N(CC(=O)Nc2cccc(NC3CCC(=O)NC3=O)c2)[C@@H](C)C1 (stereo partly drawn) [Cmpd 94, 2-((2S,4r,6R)-4-(2-((5-(3-(4-cyano-3-(trifluoromethyl)phenyl)-5,5-dimethyl-4-oxo-2-thioxoimidazolidin-1-yl)-3-isopropylpyridin-2-yl)oxy)ethyl)-2,6-dimethylpiperidin-1-yl)-N-(3-((2,6-dioxopiperidin-3-yl)amino)phenyl)acetamide]
  Y (lowest measured AR level normalized to DMSO control): ** (25%<Y<=35%)
  DC50: 500 to 1000 nM

## CC1(C)C(=O)N(c2cnc(C#N)c(C(F)(F)F)c2)C(=S)N1c1ccc(OCC2CCN(CC(=O)Nc3cccc(NC4CCC(=O)NC4=O)c3)CC2)c(Cl)c1 (centres unmarked) [Cmpd 7, 2-(4-((2-chloro-4-(3-(6-cyano-5-(trifluoromethyl)pyridin-3-yl)-5,5-dimethyl-4-oxo-2-thioxoimidazolidin-1-yl)phenoxy)methyl)piperidin-1-yl)-N-(3-(2,6-dioxopiperidin-3-ylamino)phenyl)acetamide]
  Y (lowest measured AR level normalized to DMSO control): ** (25%<Y<=35%)
  DC50: 500 to 1000 nM

## CCc1cc(N2C(=S)N(c3cnc(C#N)c(C(F)(F)F)c3)C(=O)C23CCC3)ccc1OCCC1CCN([C@@H](C)C(=O)Nc2cc(Cl)cc(NC3CCC(=O)NC3=O)c2)CC1 (stereo partly drawn) [Cmpd 35, (2S)-N-(3-chloro-5-(2,6-dioxopiperidin-3-ylamino)phenyl)-2-(4-(2-(4-(7-(6-cyano-5-(trifluoromethyl)pyridin-3-yl)-8-oxo-6-thioxo-5,7-diazaspiro[3.4]octan-5-yl)-2-ethylphenoxy)ethyl)piperidin-1-yl)propanamide]
  Y (lowest measured AR level normalized to DMSO control): * (0<Y<=25%)
  DC50: 100 to 500 nM

## CCc1cc(N2C(=S)N(c3cnc(C#N)c(C(F)(F)F)c3)C(=O)C2(C)C)ccc1OCCC1CCN([C@@H](C)C(=O)Nc2cccc(N[C@H]3CCC(=O)NC3=O)c2)CC1 [Cmpd 46, (S)-2-(4-(2-(4-(3-(6-cyano-5-(trifluoromethyl)pyridin-3-yl)-5,5-dimethyl-4-oxo-2-thioxoimidazolidin-1-yl)-2-ethylphenoxy)ethyl)piperidin-1-yl)-N-(3-((S)-2,6-dioxopiperidin-3-ylamino)phenyl)propanamide]
  Y (lowest measured AR level normalized to DMSO control): * (0<Y<=25%)
  DC50: < 100 nM

## CCc1cc(N2C(=S)N(c3cnc(C#N)c(C(F)(F)F)c3)C(=O)C23CCC3)ccc1OCCC1CCN([C@H](C)C(=O)Nc2cc(Cl)cc(NC3CCC(=O)NC3=O)c2)CC1 (stereo partly drawn) [Cmpd 36, (2R)-N-(3-chloro-5-(2,6-dioxopiperidin-3-ylamino)phenyl)-2-(4-(2-(4-(7-(6-cyano-5-(trifluoromethyl)pyridin-3-yl)-8-oxo-6-thioxo-5,7-diazaspiro[3.4]octan-5-yl)-2-ethylphenoxy)ethyl)piperidin-1-yl)propanamide]
  Y (lowest measured AR level normalized to DMSO control): * (0<Y<=25%)
  DC50: 100 to 500 nM

## CCc1cc(N2C(=S)N(c3cnc(C#N)c(C(F)(F)F)c3)C(=O)C2(C)C)ccc1OCCC1CCN(CC(=O)Nc2cccc(NC3CCC(=O)NC3=O)c2)CC1 (centres unmarked) [Cmpd 12, 2-(4-(2-(4-(3-(6-cyano-5-(trifluoromethyl)pyridin-3-yl)-5,5-dimethyl-4-oxo-2-thioxoimidazolidin-1-yl)-2-ethylphenoxy)ethyl)piperidin-1-yl)-N-(3-(2,6-dioxopiperidin-3-ylamino)phenyl)acetamide]
  Y (lowest measured AR level normalized to DMSO control): * (0<Y<=25%)
  DC50: < 100 nM

## CCc1cc(N2C(=S)N(c3cnc(C#N)c(C(F)(F)F)c3)C(=O)C2(C)C)ccc1OCCC1CCN(C2(C(=O)Nc3cc(Cl)cc(NC4CCC(=O)NC4=O)c3)CC2)CC1 (centres unmarked) [Cmpd 34, N-(3-chloro-5-(2,6-dioxopiperidin-3-ylamino)phenyl)-1-(4-(2-(4-(3-(6-cyano-5-(trifluoromethyl)pyridin-3-yl)-5,5-dimethyl-4-oxo-2-thioxoimidazolidin-1-yl)-2-ethylphenoxy)ethyl)piperidin-1-yl)cyclopropanecarboxamide]
  Y (lowest measured AR level normalized to DMSO control): *** (35%<Y<50%)
  DC50: 500 to 1000 nM

## CCc1cc(N2C(=S)N(c3ccc(C#N)c(C(F)(F)F)c3)C(=O)C2(C)C)ccc1OCCC1CCN(CC(=O)Nc2cc(Cl)cc(NC3CCC(=O)NC3=O)c2)CC1 (centres unmarked) [Cmpd 20, N-(3-chloro-5-(2,6-dioxopiperidin-3-ylamino)phenyl)-2-(4-(2-(4-(3-(4-cyano-3-(trifluoromethyl)phenyl)-5,5-dimethyl-4-oxo-2-thioxoimidazolidin-1-yl)-2-ethylphenoxy)ethyl)piperidin-1-yl)acetamide]
  Y (lowest measured AR level normalized to DMSO control): * (0<Y<=25%)
  DC50: < 100 nM

## CC1(C)C(=O)N(c2ccc(C#N)c(C(F)(F)F)c2)C(=S)N1c1ccc(OCCC2CCN(CC(=O)Nc3cccc(NC4CCC(=O)NC4=O)c3)CC2)c(Cl)c1 (centres unmarked) [Cmpd 4, 2-(4-(2-(2-chloro-4-(3-(4-cyano-3-(trifluoromethyl)phenyl)-5,5-dimethyl-4-oxo-2-thioxoimidazolidin-1-yl)phenoxy)ethyl)piperidin-1-yl)-N-(3-(2,6-dioxopiperidin-3-ylamino)phenyl)acetamide]
  Y (lowest measured AR level normalized to DMSO control): ** (25%<Y<=35%)
  DC50: 100 to 500 nM

## CCc1cc(N2C(=S)N(c3cnc(C#N)c(C(F)(F)F)c3)C(=O)C2(C)C)ccc1OCC[C@H]1CCN(CC(=O)Nc2cccc(NC3CCC(=O)NC3=O)c2)[C@H](C)C1 (stereo partly drawn) [Cmpd 76, 2-((2R,4S)-4-(2-(4-(3-(6-cyano-5-(trifluoromethyl)pyridin-3-yl)-5,5-dimethyl-4-oxo-2-thioxoimidazolidin-1-yl)-2-ethylphenoxy)ethyl)-2-methylpiperidin-1-yl)-N-(3-(2,6-dioxopiperidin-3-ylamino)phenyl)acetamide]
  Y (lowest measured AR level normalized to DMSO control): * (0<Y<=25%)
  DC50: < 100 nM

## CCc1cc(N2C(=S)N(c3ccc(C#N)c(C(F)(F)F)c3)C(=O)C23CCC3)ccc1OCCC1CCN([C@H](C)C(=O)Nc2cc(Cl)cc(NC3CCC(=O)NC3=O)c2)CC1 (stereo partly drawn) [Cmpd 31, (2R)-N-(3-chloro-5-(2,6-dioxopiperidin-3-ylamino)phenyl)-2-(4-(2-(4-(7-(4-cyano-3-(trifluoromethyl)phenyl)-8-oxo-6-thioxo-5,7-diazaspiro[3.4]octan-5-yl)-2-ethylphenoxy)ethyl)piperidin-1-yl)propanamide]
  Y (lowest measured AR level normalized to DMSO control): * (0<Y<=25%)
  DC50: 100 to 500 nM
